In patent US20200190081A1, “META SUBSTITUTED PHENYLPYRAZOLO- AND PHENYLPYRROLO- PYRIDAZINE DERIVATIVES HAVING MULTIMODAL ACTIVITY AGAINST PAIN” (ESTEVE PHARMACEUTICALS, S.A., priority 2016, published 2020):

Key:
[1] = biological target: Human α2δ-1 Subunit of Cav2.2 Calcium Channel (Homo sapiens, UniProt P54289); assay: Human α2δ-1 subunit of Cav2.2 calcium channel assay, [3H]-Gabapentin binding; settings: human α2δ-1 enriched membranes, 15 nM [3H]-Gabapentin
Procedure: Human α2δ-1 Subunit of Cav2.2 Calcium Channel Assay
Human α2δ-1 enriched membranes (2.5 μg) were incubated with 15 nM of radiolabeled [3H]-Gabapentin in assay buffer containing Hepes-KOH 10 mM, pH 7.4. NSB (non specific binding) was measured by adding 10 μM pregabalin. The binding of the test compound was measured at five different concentrations. After 60 min incubation at 27° C., binding reaction was terminated by filtering through Multiscreen GF/C (Millipore) presoaked in 0.5% polyethyleneimine in Vacuum Manifold Station, followed by 3 washes with ice-cold filtration buffer containing 50 mM Tris-HCl, pH 7.4. Filter plates were dried at 60° C. for 1 hour and 30 μl of scintillation cocktail were added to each well before radioactivity reading. Readings were performed in a Trilux 1450 Microbeta radioactive counter (Perkin Elmer).

[2] = biological target: Human norepinephrine transporter (NET) (Homo sapiens, UniProt P23975); assay: Binding assay to human norepinephrine transporter (NET), [3H]-Nisoxetin; settings: human NET enriched membranes, 5 nM [3H]-Nisoxetin
Chain of Human norepinephrine transporter (NET) (P23975 whole entry): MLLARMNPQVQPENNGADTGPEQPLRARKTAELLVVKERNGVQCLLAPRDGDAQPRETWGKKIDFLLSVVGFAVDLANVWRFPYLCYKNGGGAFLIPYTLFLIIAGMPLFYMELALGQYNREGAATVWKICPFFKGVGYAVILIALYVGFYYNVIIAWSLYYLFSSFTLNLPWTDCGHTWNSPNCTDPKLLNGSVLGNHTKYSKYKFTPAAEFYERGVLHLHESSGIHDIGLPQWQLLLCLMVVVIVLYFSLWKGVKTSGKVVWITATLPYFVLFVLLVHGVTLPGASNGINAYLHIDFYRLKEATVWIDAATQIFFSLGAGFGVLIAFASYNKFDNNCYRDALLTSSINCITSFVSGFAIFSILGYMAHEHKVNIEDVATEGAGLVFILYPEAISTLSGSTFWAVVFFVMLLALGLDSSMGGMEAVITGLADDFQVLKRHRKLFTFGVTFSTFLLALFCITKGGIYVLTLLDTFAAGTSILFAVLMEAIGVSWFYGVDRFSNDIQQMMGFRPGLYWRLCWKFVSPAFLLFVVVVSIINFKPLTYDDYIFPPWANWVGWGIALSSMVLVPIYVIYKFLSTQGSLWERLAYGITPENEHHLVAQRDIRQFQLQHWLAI
Procedure: Binding Assay to Human Norepinephrine Transporter (NET).
Human norepinephrine transporter (NET) enriched membranes (5 μg) were incubated with 5 nM of radiolabeled [3H]-Nisoxetin in assay buffer containing 50 mM Tris-HCl, 120 mM NaCl, 5 mM KCl, pH 7.4. NSB (non specific binding) was measured by adding 10 μM of desipramine. The binding of the test compound was measured at five different concentrations. After 60 min incubation at 4° C., binding reaction was terminated by filtering through Multiscreen GF/C (Millipore) presoaked in 0.5% polyethyleneimine in Vacuum Manifold Station, followed by 3 washes with ice-cold filtration buffer containing 50 mM Tris-HCl, 0.9% NaCl, pH 7.4. Filter plates were dried at 60° C. for 1 hour and 30 μl of scintillation cocktail were added to each well before radioactivity reading. Readings were performed in a Trilux 1450 Microbeta radioactive counter (Perkin Elmer).

Chain of Human α2δ-1 Subunit of Cav2.2 Calcium Channel (P54289 25-1103): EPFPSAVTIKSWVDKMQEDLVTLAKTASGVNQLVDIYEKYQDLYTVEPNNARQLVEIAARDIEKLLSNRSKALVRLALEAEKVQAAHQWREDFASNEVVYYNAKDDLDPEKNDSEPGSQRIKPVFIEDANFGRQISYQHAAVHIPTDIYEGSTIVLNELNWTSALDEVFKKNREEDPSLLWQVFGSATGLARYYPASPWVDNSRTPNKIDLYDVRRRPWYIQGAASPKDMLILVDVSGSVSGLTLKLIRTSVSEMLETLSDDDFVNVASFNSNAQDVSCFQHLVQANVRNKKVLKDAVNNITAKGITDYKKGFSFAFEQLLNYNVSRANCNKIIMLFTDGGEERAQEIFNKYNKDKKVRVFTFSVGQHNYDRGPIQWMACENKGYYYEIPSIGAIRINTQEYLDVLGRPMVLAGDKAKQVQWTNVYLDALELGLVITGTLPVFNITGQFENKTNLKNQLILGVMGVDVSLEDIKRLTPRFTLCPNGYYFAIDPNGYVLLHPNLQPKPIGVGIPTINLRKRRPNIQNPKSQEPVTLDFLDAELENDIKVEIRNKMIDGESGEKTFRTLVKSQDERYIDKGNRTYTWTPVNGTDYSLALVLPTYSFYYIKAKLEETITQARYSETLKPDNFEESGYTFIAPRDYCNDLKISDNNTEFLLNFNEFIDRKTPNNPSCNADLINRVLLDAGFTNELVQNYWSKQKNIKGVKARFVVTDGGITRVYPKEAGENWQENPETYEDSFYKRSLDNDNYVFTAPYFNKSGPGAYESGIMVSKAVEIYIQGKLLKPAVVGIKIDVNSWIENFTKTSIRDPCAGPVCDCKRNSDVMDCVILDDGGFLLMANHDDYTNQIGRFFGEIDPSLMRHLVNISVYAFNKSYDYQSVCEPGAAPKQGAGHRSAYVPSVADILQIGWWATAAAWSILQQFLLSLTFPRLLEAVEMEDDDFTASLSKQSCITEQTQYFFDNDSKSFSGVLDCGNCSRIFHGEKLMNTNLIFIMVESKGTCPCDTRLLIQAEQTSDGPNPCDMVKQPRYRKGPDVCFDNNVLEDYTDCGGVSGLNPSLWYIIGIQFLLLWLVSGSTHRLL

Ki [1] [nM]	Ki [2] [nM]	Structure (SMILES)
500 to 5000	100 to 500	Cc1nnc(N(C)C)c2nn(-c3cccc(OCC4CCN(CCc5ccccc5)CC4)c3)c(C)c12 [Example 53, N,N,3,4-Tetramethyl-2-(3-((1-phenethylpiperidin-4-yl)methoxy)phenyl)-2H-pyrazolo[3,4-d]pyridazin-7-amine]
500 to 5000	100 to 500	Cc1nnc(N(C)C)c2nn(-c3cccc(OC(CCNCCF)c4ccccc4)c3)c(C)c12 (stereo not shown) [Example 54, 2-(3-(3-((2-fluoroethyl)amino)-1-phenylpropoxy)phenyl)-N,N,3,4-tetramethyl-2H-pyrazolo[3,4-d]pyridazin-7-amine]
500 to 5000	500 to 1000	Cc1nnc(N(C)C)c2nn(-c3cccc(OC(CCNCC(F)F)c4ccccc4)c3)c(C)c12 (stereo not shown) [Example 55, 2-(3-(3-((2,2-difluoroethyl)amino)-1-phenylpropoxy)phenyl)-N,N,3,4-tetramethyl-2H-pyrazolo[3,4-d]pyridazin-7-amine]
500 to 5000	100 to 500	CNCCC(Oc1cccc(-n2nc3c(N(C)C)nnc(C)c3c2C)c1)c1cccc(C(N)=O)c1 (stereo not shown) [Example 56, 3-(1-(3-(7-(Dimethylamino)-3,4-dimethyl-2H-pyrazolo[3,4-d]pyridazin-2-yl)phenoxy)-3-(methylamino)propyl)benzamide]
500 to 5000	100 to 500	CNCCC(Oc1cccc(-n2nc3c(N(C)C)nnc(C)c3c2C)c1)c1ccc(C(N)=O)cc1 (stereo not shown) [Example 57, 4-(1-(3-(7-(dimethylamino)-3,4-dimethyl-2H-pyrazolo[3,4-d]pyridazin-2-yl)phenoxy)-3-(methylamino)propyl)benzamide]
500 to 5000	< 100	CNCC[C@H](Oc1cccc(-n2nc3c(N(C)C)nnc(C)c3c2C)c1)c1ccccc1 [Example 58, (S)-N,N,3,4-Tetramethyl-2-(3-(3-(methylamino)-1-phenylpropoxy)phenyl)-2H-pyrazolo[3,4-d]pyridazin-7-amine]
500 to 5000	100 to 500	CNCC[C@@H](Oc1cccc(-n2nc3c(N(C)C)nnc(C)c3c2C)c1)c1ccccc1 [Example 59, (R)-N,N,3,4-tetramethyl-2-(3-(3-(methylamino)-1-phenylpropoxy)phenyl)-2H-pyrazolo[3,4-d]pyridazin-7-amine]
500 to 5000	100 to 500	CNC[C@H](Oc1cccc(-n2nc3c(N(C)C)nnc(C)c3c2C)c1)c1ccccc1 [Example 60, (R)-N,N,3,4-Tetramethyl-2-(3-(2-(methylamino)-1-phenylethoxy)phenyl)-2H-pyrazolo[3,4-d]pyridazin-7-amine]
500 to 5000	< 100	CNC[C@@H](Oc1cccc(-n2nc3c(N(C)C)nnc(C)c3c2C)c1)c1ccccc1 [Example 61, (S)-N,N,3,4-tetramethyl-2-(3-(2-(methylamino)-1-phenylethoxy)phenyl)-2H-pyrazolo[3,4-d]pyridazin-7-amine]
500 to 5000	< 100	CNCC[C@@H](Oc1cccc(-n2nc3c(N(C)C)nnc(C)c3c2C)c1)c1ccccc1F [Example 62, (R)-2-(3-(1-(2-Fluorophenyl)-3-(methylamino)propoxy)phenyl)-N,N,3,4-tetramethyl-2H-pyrazolo[3,4-d]pyridazin-7-amine]
500 to 5000	< 100	CNCC[C@H](Oc1cccc(-n2nc3c(N(C)C)nnc(C)c3c2C)c1)c1ccccc1F [Example 63, (S)-2-(3-(1-(2-fluorophenyl)-3-(methylamino)propoxy)phenyl)-N,N,3,4-tetramethyl-2H-pyrazolo[3,4-d]pyridazin-7-amine]
< 500	100 to 500	CNCC[C@H](Oc1cccc(-n2nc3c(N(C)C)nnc(C)c3c2C)c1)c1cccnc1 [Example 64, (S)-N,N,3,4-tetramethyl-2-(3-(3-(methylamino)-1-(pyridin-3-yl)propoxy)phenyl)-2H-pyrazolo[3,4-d]pyridazin-7-amine]
500 to 5000	500 to 1000	CNCC[C@@H](Oc1cccc(-n2nc3c(N(C)C)nnc(C)c3c2C)c1)c1cccnc1 [Example 65, (R)-N,N,3,4-tetramethyl-2-(3-(3-(methylamino)-1-(pyridin-3-yl)propoxy)phenyl)-2H-pyrazolo[3,4-d]pyridazin-7-amine]
500 to 5000	500 to 1000	CNCCC(Oc1cccc(-n2c(C)c3c(C)nnc(C)c3c2C)c1)c1ccccc1F (stereo not shown) [Example 66, 3-(2-fluorophenyl)-N-methyl-3-(3-(1,4,5,7-tetramethyl-6H-pyrrolo[3,4-d]pyridazin-6-yl)phenoxy)propan-1-amine]
500 to 5000	100 to 500	CNCCC(Oc1cccc(-n2c(C)c3c(C)nnc(C)c3c2C)c1)c1cccc(F)c1 (stereo not shown) [Example 67, 3-(3-fluorophenyl)-N-methyl-3-(3-(1,4,5,7-tetramethyl-6H-pyrrolo[3,4-d]pyridazin-6-yl)phenoxy)propan-1-amine]
≥ 5000	100 to 500	CNCC[C@H](Oc1cccc(-n2c(C)c3c(C)nnc(C)c3c2C)c1)c1cccc(F)c1 [Example 68, (S)-3-(3-Fluorophenyl)-N-methyl-3-(3-(1,4,5,7-tetramethyl-6H-pyrrolo[3,4-d]pyridazin-6-yl)phenoxy)propan-1-amine]
< 500	100 to 500	CNCC[C@@H](Oc1cccc(-n2c(C)c3c(C)nnc(C)c3c2C)c1)c1cccc(F)c1 [Example 69, (R)-3-(3-fluorophenyl)-N-methyl-3-(3-(1,4,5,7-tetramethyl-6H-pyrrolo[3,4-d]pyridazin-6-yl)phenoxy)propan-1-amine]
